Test results taken from the supplement of paper PMC11150407.

Assays:
Test in all cases: cell viability relative to vehicle (fraction); higher = less inhibition
Conditions in all cases: 72 h
PR#005 = tested on: PR#005
Experimental: (§1)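 Primary 3q26 AML patient cells were treated for 72 h with AR-42, belinostat or entinostat (0.01-2 uM, 2-fold dilutions), in duplicate. Viability was measured by ATP-based luminescence and normalised to vehicle, given as a fraction.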

PR#002 = tested on: PR#002
Experimental: as §1

PR#003 = tested on: PR#003
Experimental: as §1

PR#006 = tested on: PR#006
Experimental: as §1

PR#008 = tested on: PR#008
Experimental: as §1

PR#0024 = tested on: PR#0024
Experimental: as §1

PR#0023 = tested on: PR#0023
Experimental: as §1

PR#004 = tested on: PR#004
Experimental: as §1

PR#007 = tested on: PR#007
Experimental: as §1

CC(C)[C@H](C(=O)Nc1ccc(C(=O)NO)cc1)c1ccccc1 [AR-42]
cell viability
Conditions	PR#002	PR#003	PR#004	PR#005	PR#006	PR#007	PR#008	PR#0023	PR#0024
0.016 µM	1	1.01	0.809	0.962	0.936	0.988	0.553	0.955	0.953
0.031 µM	0.938	0.853	0.646	0.977	0.904	1.0115	0.434	0.984	0.81
0.0625 µM	0.855	0.797	0.417	0.833	0.902	1.01	0.3	0.675	0.67
0.125 µM	0.792	0.503	0.248	0.991	0.552	0.872	0.199	0.785	0.4575
0.25 µM	0.508	0.247	0.132	0.928	0.367	0.748	0.0865	0.441	0.259
0.5 µM	0.124	0.0952	0.0759	0.239	0.104	0.443	0.0168	0.4779	0.127
1 µM	0.0233	0.0399	0.0688	0.0777	0.0486	0.155	0.0142	0.116	0.0553
2 µM	0.01971	0.0313	0.0591	0.0322	0.0395	0.0706	0.016	0.0583	0.0347

O=C(/C=C/c1cccc(S(=O)(=O)Nc2ccccc2)c1)NO [Belinostat]
cell viability
Conditions	PR#002	PR#003	PR#004	PR#005	PR#006	PR#007	PR#008	PR#0023	PR#0024
0.016 µM	1.22	1.12	0.978	0.798	1.048	0.981	0.643	0.933	0.97
0.031 µM	1.08	1.12	0.967	0.698	0.987	0.961	0.642	0.917	0.882
0.0625 µM	1.01	0.9713	0.7834	0.979	0.941	0.897	0.468	0.893	0.77
0.125 µM	1.01	0.874	0.577	0.871	0.729	0.854	0.391	0.8339	0.609
0.25 µM	0.902	0.562	0.326	0.524	0.481	0.717	0.247	0.777	0.363
0.5 µM	0.492	0.3	0.125	0.404	0.177	0.4339	0.0828	0.611	0.184
1 µM	0.114	0.0978	0.0685	0.108	0.0585	0.173	0.0197	0.325	0.0781
2 µM	0.0243	0.0452	0.0602	0.0361	0.035	0.0759	0.0115	0.0655	0.0477

Nc1ccccc1NC(=O)c1ccc(CNC(=O)OCc2cccnc2)cc1 [Entinostat]
cell viability
Conditions	PR#002	PR#003	PR#004	PR#005	PR#006	PR#007	PR#008	PR#0023	PR#0024
0.016 µM	1.02	0.949	0.78	1.04	0.961	0.934	0.764	0.932	1.08
0.031 µM	0.94	1	0.673	0.625	0.813	0.903	0.691	0.923	1.02
0.0625 µM	0.869	0.91	0.472	0.534	0.731	0.938	0.49	0.806	0.924
0.125 µM	0.736	0.735	0.298	0.437	0.555	0.918	0.303	0.7626	0.827
0.25 µM	0.593	0.536	0.183	0.475	0.434	0.778	0.186	0.6886	0.682
0.5 µM	0.396	0.281	0.1099	0.203	0.2018	0.666	0.0771	0.589	0.516
1 µM	0.0907	0.115	0.0717	0.06904	0.115	0.345	0.0229	0.423	0.285
2 µM	0.0309	0.0591	0.0662	0.0415	0.065	0.168	0.00956	0.183	0.14
